What was measured:
[1] = system: F. nucleatum (Fn) biofilm; experiment: Fn biofilm formation induced by Fn AI-2, crystal violet staining; format: cell-based, F. nucleatum (ATCC 25586); settings: for OD590 nm: Fn + Fn AI-2 10% (v/v), sugar 2 mM, 48-72 h, smaller OD = more inhibition of biofilm, Fn/AI-2 control 1.5, Fn 0.46
Procedure: To test biofilm formation by Fn, a Fn culture broth (2 ml; a negative control group, the number of bacteria: 2×10^7/ml), a mixture of Fn culture broth (2 ml) and F. nucleatum AI-2 (purified from F. nucleatum secretary material of F. nucleatum culture broth using a C18 Sep-Pak reverse-phase column (Waters Co., Milford, Mass.); hereinafter, referred to as ‘Fn AI-2’; 10% (v/v) with respect to the total volume of the mixture with Fn culture broth), or a mixture of Fn culture broth (2 ml) and Fn AI-2 (10% (v/v) with respect to the total volume of the mixture with Fn culture broth) and each of QSI candidates was added to a 24-well plate with a glass slip (round, 12 mm radius), and cultured under anaerobic conditions for 48-72 hours. As the QSI candidates, sugars (D-rib, D-gal, D-Glu, D-Man, or D-ara) were used in an amount of 2 mM, and the furanone compound [(5Z)-4-bromo-5-(bromomethylene)-2(5H)-furanone] was used in an amount of 2 μM.
(§1) Biofilms formed on the cover slips were stained with 10% crystal violet [Tris(4-(dimethylamino)phenyl)methylium chloride] for 10 minutes, washed three times with PBS, and destained with 1 ml of acetone-alcohol (20:80, vol/vol). The optical density at 590 nm of the destaining solution containing crystal violet was measured using a microplate reader (a Wallac Victor3 microtiter, PerkinElmer Life Sciences, Waltham, Mass.). The smaller optical density (OD590) measured at 590 nm represents more inhibition of biofilm formation, that is, higher quorum sensing inhibitory effect of the used QSI candidate.

[2] = system: F. nucleatum (Fn) biofilm; experiment: Fn biofilm formation induced by Fn AI-2, fluorescence staining (confocal); format: cell-based, F. nucleatum (ATCC 25586); settings: D-rib or D-gal 200 mM, Fn AI-2 10% (v/v)
Procedure: Further, inhibitory effects of individual QSI candidates on Fn biofilm formation induced by Fn AI-2 were examined by fluorescence staining. 2 ml of Fn culture broth (the number of bacteria: 2×10^7/ml) was used, and Fn AI-2 was used in a volume of 10% (v/v) with respect to the total volume of a mixture with Fn culture broth. As the QSI candidates, 200 mM of D-rib or D-gal was used, and 20 μM of the furanone compound was used. Biofilms formed on the cover slip were stained with fluorescent materials using the live/dead-BacLight viability kit (Invitrogen, Grand Island, N.Y., USA) and observed using a confocal microscope (Carl Zeiss, LSM 700). […] Fluorescence intensities of the obtained individual fluorescence images were quantified using ZEN 2010 program of a confocal microscope, and shown in FIG. 3.

[3] = system: P. gingivalis (Pg) biofilm; experiment: Pg biofilm formation induced by Fn AI-2, crystal violet staining; format: cell-based, P. gingivalis (ATCC 33277)
Procedure: To test biofilm formation by Pg, a test was performed in the same manner as in Example 3. That is, a Pg culture broth (2 ml; negative control group, the number of bacteria: 4×10^8/ml), a mixture of Pg culture broth (2 ml) and Fn AI-2 (10% (v/v) with respect to the total volume of the mixture with Pg culture broth), or a mixture of Pg culture broth (2 ml) and Fn AI-2 (10% (v/v) with respect to the total volume of the mixture with Fn culture broth) and D-gal (2 mM) was added to a 24-well plate with a glass slip (round, 12 mm radius), and cultured under anaerobic conditions for 48˜72 hours. For comparison, 2 μM of the furanone compound [(5Z)-4-bromo-5-(bromomethylene)-2(5H)-furanone] was used instead of D-gal (2 mM) to perform the same test.
as §1

[4] = system: P. gingivalis (Pg) biofilm; experiment: Pg biofilm formation induced by Fn AI-2, fluorescence staining (confocal); format: cell-based, P. gingivalis (ATCC 33277); settings: D-gal 200 mM vs furanone 20 μM
Procedure: Further, inhibitory effects of D-gal on Pg biofilm formation induced by Fn AI-2 were examined by fluorescence staining. 2 ml of Pg culture broth (the number of bacteria: 4×10^8/ml) was used, and Fn AI-2 was used in a volume of 10% (v/v) with respect to the total volume of a mixture with Pg culture broth. 200 mM of D-gal was used, and for comparison, the same test was performed using 20 μM of the furanone compound, instead of D-gal. Biofilms formed on the cover slip were stained with fluorescent materials using the live/dead-BacLight viability kit (Invitrogen, Grand Island, N.Y., USA) and observed using a confocal microscope (Carl Zeiss, LSM 700). […] Fluorescence intensities of the obtained individual fluorescence images were quantified using ZEN 2010 program of a confocal microscope, and shown in FIG. 6.

F. nucleatum = experiment: Effect on bacterial growth of F. nucleatum (OD 600 nm); format: cell-based; settings: D-galactose 100 mM, 37° C., anaerobic, 24-48 hours, vs control 0 mM
Procedure: In detail, F. nucleatum was cultured in the presence of 0 mM (control group) and 100 mM of D-galactose at 37° C. under anaerobic conditions for 24-48 hours, and then optical density at 600 nm was determined to measure cell growth.

S. mutans (Sm) biofilm = experiment: S. mutans biofilm formation, crystal violet staining; format: cell-based, Streptococcus mutans (ATCC 25175); settings: D-gal 2 mM
Procedure: 2 mL (2×10^7/ml) of the culture broth of a representative cariogenic bacterium S. mutans (Sm) and 2 mL (2×10^7/ml) of the culture broth of one of normal oral flora, S. oxalis (SO) were added to a saliva-coated glass slip (round, 12 mm radius), respectively and cultured with 0 mM or 2 mM of D-galactose to form biofilms. The formed biofilms were stained with crystal violet in the same manner as in Examples 3-6 to test biofilm formation according to the presence of D-galactose. Further, the biofilms were stained with fluorescent materials using the live/dead-BacLight viability kit (Invitrogen, Grand Island, N.Y., USA), followed by analysis. For comparison, 2 μM of the furanone compound was used instead of D-galactose to perform the same test.

Structure (SMILES)	OD590 nm [1]	QSI inhibitory effect (inhibitory effect on Fn biofilm formation), in words ([1]; crystal violet, sugars 2 mM, compared to negative control Fn/AI-2)	inhibitory effect on Fn biofilm formation, in words [2]	OD590 nm ([3]; Pg + Fn AI-2 10% (v/v), D-gal 2 mM, 48-72 h, Pg/AI-2 control 2.00, Pg 0.66)	inhibitory effect on Pg biofilm formation, in words ([3]; crystal violet, D-gal 2 mM vs furanone 2 μM)	inhibitory effect on Pg biofilm formation, in words [4]	effect on bacterial growth (cell growth curve, OD 600 nm), in words (F. nucleatum)	OD590 nm (S. mutans (Sm) biofilm; Sm on saliva-coated glass slip, Sm control 0.48)	inhibitory effect on Sm biofilm formation, in words (S. mutans (Sm) biofilm; crystal violet, furanone compound 2 μM)
O=C[C@H](O)[C@@H](O)[C@@H](O)[C@H](O)CO [D-gal, D-galactose]	0.57	excellent QSI inhibitory effect	remarkably excellent inhibitory effect	1.24	equivalent to that of the furanone compound	equivalent to that of the furanone compound	does not affect bacterial growth	0.37	significant inhibitory effect
O=C[C@H](O)[C@H](O)[C@H](O)CO [D-rib, D-ribose, reference compound]	0.77		inhibited						

From patent publication US20190224222A1, “METHOD OF INHIBITING QUORUM SENSING USING D-GALACTOSE” (Seoul National University R&DB Foundation, priority 2014, published 2019)
